The values that follow are results of earlier work, collected in patent publication US20110020252A1, “METHOD OF LONG LASTING HUMAN SKIN TANNING” (priority 2010, published 2011).

This series relates to gram-positive cocci (including methicillin-resistant Staphylococcus aureus-MSRA), some gram-negative organisms, Legionella, many mycobacterium and some fungi. The conditions noted are these: cited from earlier work.

In the case of `CO[C@H]1/C=C/O[C@@]2(C)Oc3c(C)c(O)c4c(O)c(c(/C=N/N5CCN(C)CC5)c(O)c4c3C2=O)NC(=O)/C(C)=C\C=C\[C@H](C)[C@H](O)[C@@H](C)[C@@H](O)[C@@H](C)[C@H](OC(C)=O)[C@@H]1C` [Rifampin], the antimicrobial activity result is “good activity”.
